By IC50 is commonly meant the concentration needed to halve the response being measured. Read a low IC50 as greater potency in that assay.

This assay relates to isolated rabbit gastric glands. The assay is described as follows: Inhibiting effect in vitro on acid secretion in isolated rabbit gastric glands (14C-aminopyrine accumulation). In kind it is cell-based. The settings on record: Oryctolagus cuniculus, 1 h, logarithm of concentration (in M) giving 50% inhibition of aminopyrine accumulation; 5×10^-5 M histamine, 60 min, free base. As for the experimental part:
I. Inhibiting effect in vitro on acid secretion in isolated rabbit gastric glands
Isolated rabbit gastric glands were prepared as described by Berglindh et al., Acta physiol. scand. 1976. 96. 150-159. This method involves vascular perfusion of the rabbit stomach via the gastric arteries, scraping and scissor mincing of the separated gastric mucosa and collagenase (0.1%, Type I, Sigma Chemicals, St. Louis, MO. USA) digestion at 37° C. for 60-90 min. The glands are then harvested and filtered through nylon cloth to remove coarse fragments. The glands are thereafter incubated at 37° C. in a medium containing NaCl 132.4 mM, KCl 5.4 mM, […], NaH2 PO4 1.0 mM, MgSO4 1.2 mM, CaCl2 1.0 mM, glucose 10 mM, and 1 mg/ml rabbit albumine, pH 7.4.
The acid secretion in the isolated gland preparation was recorded by measuring the uptake of ^14 C-labelled aminopyrine into the glands as described by Berglindh et al., Acta physiol. scand. 1976. 97. 401-414. Accumulation of aminopyrine in the glands indicates gastric acid secretion within the glands. The standard medium contained 10^-6 M ^14 C-aminopyrine (Amersham, Great Britain). After the incubation period, the glands were centrifuged, the supernatant was removed and the glands dried, weighed and dissolved in Soluene -350 (Packard, IU. USA). Samples of the supernatant and glands were separately counted in a scintillation counter. The accumulation of ^14 C-labelled aminopyrine in the glands was calculated as detailed by Berglindh et al., Acta physiol. scand. 1976. 97. 403.
Glands were incubated for 60 min. in the presence of 5×10^-5 M histamine and the test compound to be studied. The free base of the test compound was dissolved in methanol. The final concentration of methanol was 1% in the incubation medium, having no influence on the aminopyrine accumulation ratio.
Regarding `COc1c(C)cc2[nH]c([S+]([O-])Cc3nccc(C)c3C)nc2c1C` (stereo not drawn) [Example 1, 4,6-dimethyl-5-methoxy-2-[[(3,4-dimethyl-2-pyridinyl)methyl]sulfinyl]-1H-benzimidazole], the IC50 was 200 nM.
Under `CCCCCCCOc1c(C)cc2[nH]c([S+]([O-])Cc3ncc(C)c(OC)c3C)nc2c1C` (stereo not drawn) [Example 2, 4,6-dimethyl-5-heptyloxy-2-[[(4-methoxy-3,5-dimethyl-2-pyridinyl)methyl]sulfinyl]-1H-benzimidazole] stands 1260 nM; under `COc1c(C)cnc(C[S+]([O-])c2nc3c(C)c(OC)c(C)cc3[nH]2)c1C` (stereo not drawn) [Example 8, 4,6-dimethyl-5-methoxy-2-[[(4-methoxy-3,5-dimethyl-2-pyridinyl)methyl]sulfinyl]-1H-benzimidazole], 316 nM; under `C=CCOc1c(C)cnc(C[S+]([O-])c2nc3c(C)c(C)c(C)c(C)c3[nH]2)c1C` (stereo not drawn) [Example 10], 794 nM.
Next, `COc1c(C)cnc(C[S+]([O-])c2nc3c(C)c(C)c(C)c(C)c3[nH]2)c1C` (stereo not drawn) [Example 12]: 316 nM.
In the case of `C=CCOc1c(C)cnc(C[S+]([O-])c2nc3c(C)c(C)c(C)cc3[nH]2)c1C` (stereo not drawn) [Example 14], the IC50 was 794 nM.
Next, `COc1c(C)cnc(C[S+]([O-])c2nc3c(C)c(C)c(C)cc3[nH]2)c1C` (stereo not drawn) [Example 16]: 316 nM.
As for `C=CCOc1c(C)cnc(C[S+]([O-])c2nc3c(C)c(C)cc(C)c3[nH]2)c1C` (stereo not drawn) [Example 18], 1260 nM corresponded to half-maximal inhibition (IC50).
With `COc1c(C)cnc(C[S+]([O-])c2nc3c(C)c(C)cc(C)c3[nH]2)c1C` (stereo not drawn) [Example 20], the IC50 was 1000 nM.
Next, `C=CCOc1c(C)cnc(C[S+]([O-])c2nc3c(C)c(C)ccc3[nH]2)c1C` (stereo not drawn) [Example 22]: 1000 nM.
`C=CCOc1c(C)cnc(C[S+]([O-])c2nc3cc(C)c(C)cc3[nH]2)c1C` (stereo not drawn) [Example 24] had a concentration for half-maximal inhibition (IC50) of 1000 nM.
As to `C=CCOc1c(C)cnc(C[S+]([O-])c2nc3c(C)ccc(C)c3[nH]2)c1C` (stereo not drawn) [Example 26], the half-maximal inhibitory concentration (IC50) is 1260 nM.
In turn, `C=CCOc1c(C)cnc(C[S+]([O-])c2nc3c(C)cccc3[nH]2)c1C` (stereo not drawn) [Example 28] had a half-inhibitory concentration (IC50) of 1260 nM.
Next, `C=CCOc1c(C)cnc(C[S+]([O-])c2nc3cc(C)ccc3[nH]2)c1C` (stereo not drawn) [Example 30]: 1260 nM; `C=CCOc1c(C)cnc(C[S+]([O-])c2nc3cc(OC)ccc3[nH]2)c1C` (stereo not drawn) [Example 32]: 2510 nM; `C#CCOc1c(C)cnc(C[S+]([O-])c2nc3cc(OC)ccc3[nH]2)c1C` (stereo not drawn) [Example 34]: 10000 nM.
On to `CCc1cnc(C[S+]([O-])c2nc3cc(OC)ccc3[nH]2)cc1OC` (stereo not drawn) [Example 35], for which it took 2510 nM to reach half-maximal inhibition (IC50).
Next, `COc1ccc2[nH]c([S+]([O-])Cc3cc4c(cn3)CCCC4)nc2c1` (stereo not drawn) [Example 37]: 10000 nM; `C=CCOc1c(C)cnc(C[S+]([O-])c2nc3c(C)cc(C)cc3[nH]2)c1C` (stereo not drawn) [Example 41]: 1260 nM; `COc1c(C)cnc(C[S+]([O-])c2nc3cc(OCC#N)ccc3[nH]2)c1C` (stereo not drawn) [Example 43]: 39800 nM.
In turn, `COc1c(C)cnc(C[S+]([O-])c2nc3cc(C4CCCCC4)ccc3[nH]2)c1C` (stereo not drawn) [Example 45] showed an IC50 of 794 nM.
Next, `COc1c(C)cnc(C[S+]([O-])c2nc3cc(CO)c(C)cc3[nH]2)c1C` (stereo not drawn) [Example 51]: 794 nM; `C=CCOc1c(C)cnc(C[S+]([O-])c2nc3cc(C(=O)OC)c(C)cc3[nH]2)c1C` (stereo not drawn) [Example 55]: 5010 nM; `COCCOc1c(C)cc2[nH]c([S+]([O-])Cc3ncc(C)c(OC)c3C)nc2c1C` (stereo not drawn) [Example 58]: 1260 nM.
The compound `COCCOc1c(C)cc2[nH]c([S+]([O-])Cc3cc(C)c(C)cn3)nc2c1C` (stereo not drawn) [Example 60] showed an IC50 of 3980 nM.
As to `COc1c(C)cnc(C[S+]([O-])c2nc3c(C)c(C(C)=O)c(C)cc3[nH]2)c1C` (stereo not drawn) [Example 62], the half-maximal inhibitory concentration (IC50) is 631 nM.
In turn, `CC(=O)c1c(C)cc2[nH]c([S+]([O-])Cc3ncc(C)cc3C)nc2c1C` (stereo not drawn) [Example 64] had a concentration for half-maximal inhibition (IC50) of 1580 nM. This IC50 is about 2.5-fold higher than that of the compound before.
Under `CCC(=O)c1c(C)cc2[nH]c([S+]([O-])Cc3ncc(C)c(OC)c3C)nc2c1C` (stereo not drawn) [Example 66] stands 1000 nM; under `CCc1c(C)cc2[nH]c([S+]([O-])Cc3ncc(C)c(OC)c3C)nc2c1C` (stereo not drawn) [Example 68], 316 nM; under `CCc1c(C)cc2[nH]c([S+]([O-])Cc3nccc(OC)c3C)nc2c1C` (stereo not drawn) [Example 70], 1260 nM.
For `CCc1cc2[nH]c([S+]([O-])Cc3ncc(C)c(OC)c3C)nc2c(CC)c1C#N` (stereo not drawn) [Example 72], inhibition was half-maximal at 10000 nM (IC50).
`COc1c(C)cnc(C[S+]([O-])c2nc3c(C)c(OC)c(C)c(C)c3[nH]2)c1C` (stereo not drawn) [Example 74] showed an IC50 of 631 nM.
With `CCc1cnc(C[S+]([O-])c2nc3cc(C)c(C)cc3[nH]2)cc1OC` (stereo not drawn) [Example 77], the IC50 is 1000 nM.
Under `COc1c(C)cnc(C[S+]([O-])c2nc3cc(C(=O)N4CCCCC4C)ccc3[nH]2)c1C` (stereo not drawn) [Example 79] stands 10000 nM; under `COc1c(C)cnc(C[S+]([O-])c2nc3c(ccc4ccccc43)[nH]2)c1C` (stereo not drawn) [Example 83], 5010 nM.
Next, `COc1c(C)cnc(C[S+]([O-])c2nc3c4c(ccc3[nH]2)CCCC4)c1C` (stereo not drawn) [Example 87]: 501 nM; `COc1c(C)cnc(C[S+]([O-])c2nc3cc(OCCCOc4ccccc4)ccc3[nH]2)c1C` (stereo not drawn) [Example 91]: 1580 nM; `C=CCOc1c(C)cnc(C[S+]([O-])c2nc3cc(CC)ccc3[nH]2)c1C` (stereo not drawn) [Example 94]: 251 nM.
For the compound `COc1ccc2[nH]c([S+]([O-])Cc3ncc(C)c(OCCC(C)C)c3C)nc2c1` (stereo not drawn) [Example 96], the IC50 was 794 nM.
`COc1c(C)cnc(C[S+]([O-])c2nc3c(cc4c5c(cccc53)CC4)[nH]2)c1C` (stereo not drawn) [Example 98]: the half-inhibitory concentration (IC50) is 2510 nM.
On to `C=CCOc1c(C)cnc(C[S+]([O-])c2nc3cc(C(C)(C)C)ccc3[nH]2)c1C` (stereo not drawn) [Example 102], for which the IC50 is 1260 nM.
Take `COCCc1ccc2[nH]c([S+]([O-])Cc3ncc(C)c(OC)c3C)nc2c1` (stereo not drawn) [Example 104]: half-maximal inhibition (IC50) required 2000 nM.
Under `COc1c(C)cnc(C[S+]([O-])c2nc3cc4c(cc3[nH]2)OC2(CCCCC2)O4)c1C` (stereo not drawn) [Example 106] stands 1000 nM.
Next, `Cc1cnc(C[S+]([O-])c2nc3cc(C(C)C)ccc3[nH]2)c(C)c1OCC1CCCO1` (stereo not drawn) [Example 111]: 631 nM; `C=CCOc1c(C)cnc(C[S+]([O-])c2nc3cc(CCC(C)=O)ccc3[nH]2)c1C` (stereo not drawn) [Example 113]: 1580 nM.
`COc1c(C)cnc(C[S+]([O-])c2nc3cc(Oc4ccccc4)ccc3[nH]2)c1C` (stereo not drawn) [Example 118] had an IC50 of 398 nM. This IC50 lies about 4-fold lower than the previous one.
Next, `COc1c(C)cnc(C[S+]([O-])c2nc3cc(OCCc4ccccc4)ccc3[nH]2)c1C` (stereo not drawn) [Example 120]: 501 nM; `COc1c(C)cnc(C[S+]([O-])c2nc3cc(-c4ccccc4)ccc3[nH]2)c1C` (stereo not drawn) [Example 124]: 100 nM; `C=CCOc1c(C)cnc(C[S+]([O-])c2nc3cc(Br)ccc3[nH]2)c1C` (stereo not drawn) [Example 129]: 1000 nM.
Under `Cc1cnc(C[S+]([O-])c2nc3cc4c(cc3[nH]2)OCO4)c(C)c1C` (stereo not drawn) [Example 142] stands 1000 nM; under `CCc1cnc(C[S+]([O-])c2nc3cc(C(=O)OC)c(C)cc3[nH]2)cc1OC` (stereo not drawn) [Example 143], 794 nM.

The values are drawn from patent US5039806A, “Novel pharmacologically active compound pyridyl methylsulfinyl benzimidazole” (AB Hassle, priority 1983, dated 1991).
